Measured values from patent US9586961B2, “Homopiperazine derivatives as protein tyrosine kinase inhibitors and pharmaceutical use thereof” (LEO PHARMA A/S, priority 2010, dated 2017).

Tests used:
Format in all cases: biochemical
JAK1 = target: T1, JAK1 (Homo sapiens, UniProt P23458); test: JAK1 kinase assay (HTRF, inhibition of phosphorylation of a synthetic peptide); details: catalytic domain aa 850-1154, GST-tag; 7 μM ATP (Km); read-out: JAK1 kinase inhibitory activity (EC50)
T1 construct: JAK1 (aa 850-1154) and TYK2 (aa 871-1187) are expressed with an N-terminally fused GST-tag; GST (N); purchased Carna Biosciences, Inc; host or cells: baculovirus expression system
Outline: (§1)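 Baculovirus-expressed human catalytic domains (GST-JAK1, GST-TYK2, His-JAK2, His-JAK3) phosphorylated 1 μM TK substrate-biotin at ATP Km (JAK1 7 μM, JAK2 4 μM, JAK3 2 μM, TYK2 13 μM) in pH 7.0 Hepes for 20-30 min at RT, 0.75% DMSO. EDTA stop, then overnight streptavidin-XL665/cryptate-antibody detection and HTRF read.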

JAK3 = target: T2, JAK3 (Homo sapiens, UniProt P52333); test: JAK3 kinase assay (HTRF, inhibition of phosphorylation of a synthetic peptide); details: catalytic domain, His-tag; 2 μM ATP (Km); read-out: JAK3 kinase inhibitory activity (EC50)
T2 construct: All four purified enzymes contain only the catalytic domain; His (N); purchased Carna Biosciences, Inc; host or cells: baculovirus expression system
Outline: as §1

JAK2 = target: T3, JAK2 (Homo sapiens, UniProt O60674); test: JAK2 kinase assay (HTRF, inhibition of phosphorylation of a synthetic peptide); details: catalytic domain, His-tag; 4 μM ATP (Km); read-out: JAK2 kinase inhibitory activity (EC50)
T3 construct: All four purified enzymes contain only the catalytic domain; His (N); purchased Carna Biosciences, Inc; host or cells: baculovirus expression system
Outline: as §1

T2 sequence (P52333 822-1111 limits assumed): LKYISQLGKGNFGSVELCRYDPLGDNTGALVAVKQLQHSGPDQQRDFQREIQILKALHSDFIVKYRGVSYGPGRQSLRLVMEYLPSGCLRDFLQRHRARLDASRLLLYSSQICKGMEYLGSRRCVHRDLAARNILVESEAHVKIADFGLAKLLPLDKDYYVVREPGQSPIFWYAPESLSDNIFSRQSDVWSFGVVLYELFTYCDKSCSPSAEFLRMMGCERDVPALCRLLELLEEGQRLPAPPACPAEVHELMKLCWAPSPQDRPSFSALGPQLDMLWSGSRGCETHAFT
T3 sequence (O60674 849-1124 limits assumed): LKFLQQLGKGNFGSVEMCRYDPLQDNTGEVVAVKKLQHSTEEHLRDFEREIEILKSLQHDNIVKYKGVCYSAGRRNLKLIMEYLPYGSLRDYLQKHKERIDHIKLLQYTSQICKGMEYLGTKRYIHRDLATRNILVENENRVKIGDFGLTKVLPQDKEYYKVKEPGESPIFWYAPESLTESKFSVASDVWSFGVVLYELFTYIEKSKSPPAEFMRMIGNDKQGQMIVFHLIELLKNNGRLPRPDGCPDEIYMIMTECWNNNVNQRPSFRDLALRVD
T1 sequence (P23458 850-1154): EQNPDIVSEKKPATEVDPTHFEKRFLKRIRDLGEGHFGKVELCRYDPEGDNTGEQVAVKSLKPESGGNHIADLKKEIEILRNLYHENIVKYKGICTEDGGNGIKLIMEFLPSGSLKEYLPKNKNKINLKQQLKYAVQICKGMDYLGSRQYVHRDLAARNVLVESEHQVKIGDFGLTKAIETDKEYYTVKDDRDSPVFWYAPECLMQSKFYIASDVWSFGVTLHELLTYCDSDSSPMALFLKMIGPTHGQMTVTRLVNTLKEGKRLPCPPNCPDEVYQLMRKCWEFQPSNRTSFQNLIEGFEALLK

SMILES	EC50 (JAK1) [µM]	EC50 (JAK3) [µM]	EC50 (JAK2) [µM]
Cc1cc(C(=O)N2CCN(c3ncnc4[nH]ccc34)CC3(CC3)C2)sn1 [Example 233, (3-methylisothiazol-5-yl)-[5-(7H-pyrrolo[2,3-d]pyrimidin-4-yl)-5,8-diazaspiro[2.6]nonan-8-yl]methanone]	0.1 to 1	> 1	0.1 to 1
Cc1cc(C(=O)N2CCCN(c3ncnc4[nH]ccc34)CC23CC3)sn1 [Example 234, (3-methylisothiazol-5-yl)-[5-(7H-pyrrolo[2,3-d]pyrimidin-4-yl)-5,9-diazaspiro[2.6]nonan-9-yl]methanone]	> 1	> 1	0.1 to 1
O=C(c1ccns1)N1CCN(c2ncnc3[nH]ccc23)CC2(CC2)C1 [Example 235, isothiazol-5-yl-[5-(7H-pyrrolo[2,3-d]pyrimidin-4-yl)-5,8-diazaspiro[2.6]nonan-8-yl]methanone]	0.1 to 1	0.1 to 1	0.1 to 1
O=C(c1cncs1)N1CCN(c2ncnc3[nH]ccc23)CC2(CC2)C1 [Example 239, [5-(7H-pyrrolo[2,3-d]pyrimidin-4-yl)-5,8-diazaspiro[2.6]nonan-8-yl]-thiazol-5-yl-methanone]	0.1 to 1	0.1 to 1	0.1 to 1
O=C(c1cncs1)N1CCCN(c2ncnc3[nH]ccc23)CC12CC2 [Example 240, [5-(7H-pyrrolo[2,3-d]pyrimidin-4-yl)-5,9-diazaspiro[2.6]nonan-9-yl]-thiazol-5-yl-methanone]	0.1 to 1	0.1 to 1	0.1 to 1
Cc1cnc(C(=O)N2CCN(c3ncnc4[nH]ccc34)CC3(CC3)C2)s1 [Example 241, (5-methylthiazol-2-yl)-[5-(7H-pyrrolo[2,3-d]pyrimidin-4-yl)-5,8-diazaspiro[2.6]nonan-8-yl]methanone]	0.1 to 1	0.1 to 1	0.1 to 1
Cc1nocc1C(=O)N1CCN(c2ncnc3[nH]ccc23)CC2(CC2)C1 [Example 244, (3-methylisoxazol-4-yl)-[5-(7H-pyrrolo[2,3-d]pyrimidin-4-yl)-5,8-diazaspiro[2.6]nonan-8-yl]methanone]	0.1 to 1	0.1 to 1	0.1 to 1
Cc1nocc1C(=O)N1CCCN(c2ncnc3[nH]ccc23)CC12CC2 [Example 245, (3-methylisoxazol-4-yl)-[5-(7H-pyrrolo[2,3-d]pyrimidin-4-yl)-5,9-diazaspiro[2.6]nonan-9-yl]methanone]	> 1	> 1	0.1 to 1
Cc1ncsc1CC(=O)N1CCN(c2ncnc3[nH]ccc23)CC2(CC2)C1 [Example 246, 2-(4-methylthiazol-5-yl)-1-[5-(7H-pyrrolo[2,3-d]pyrimidin-4-yl)-5,8-diazaspiro[2.6]nonan-8-yl]ethanone]	0.1 to 1	> 1	0.1 to 1
Cc1ncc(CC(=O)N2CCN(c3ncnc4[nH]ccc34)CC3(CC3)C2)s1 [Example 247, 2-(2-methylthiazol-5-yl)-1-[5-(7H-pyrrolo[2,3-d]pyrimidin-4-yl)-5,8-diazaspiro[2.6]nonan-8-yl]ethanone]	0.1 to 1	> 1	< 0.1
Cc1cc(CC(=O)N2CCN(c3ncnc4[nH]ccc34)CC3(CC3)C2)n[nH]1 [Example 248, 2-(5-methyl-1H-pyrazol-3-yl)-1-[5-(7H-pyrrolo[2,3-d]pyrimidin-4-yl)-5,8-diazaspiro[2.6]nonan-8-yl]ethanone]	0.1 to 1	> 1	< 0.1
Cc1noc(C)c1CC(=O)N1CCN(c2ncnc3[nH]ccc23)CC2(CC2)C1 [Example 249, 2-(3,5-dimethylisoxazol-4-yl)-1-[5-(7H-pyrrolo[2,3-d]pyrimidin-4-yl)-5,8-diazaspiro[2.6]nonan-8-yl]ethanone]	0.1 to 1	> 1	0.1 to 1
Cc1n[nH]c(CC(=O)N2CCN(c3ncnc4[nH]ccc34)CC3(CC3)C2)n1 [Example 250, 2-(3-methyl-1H-1,2,4-triazol-5-yl)-1-[5-(7H-pyrrolo[2,3-d]pyrimidin-4-yl)-5,8-diazaspiro[2.6]nonan-8-yl]ethanone]	0.1 to 1	0.1 to 1	0.1 to 1
Cc1nonc1CC(=O)N1CCN(c2ncnc3[nH]ccc23)CC2(CC2)C1 [Example 251, 2-(4-methyl-1,2,5-oxadiazol-3-yl)-1-[5-(7H-pyrrolo[2,3-d]pyrimidin-4-yl)-5,8-diazaspiro[2.6]nonan-8-yl]ethanone]	< 0.1	0.1 to 1	< 0.1
O=C(Cc1cncs1)N1CCN(c2ncnc3[nH]ccc23)CC2(CC2)C1 [Example 252, 1-[5-(7H-pyrrolo[2,3-d]pyrimidin-4-yl)-5,8-diazaspiro[2.6]nonan-8-yl]-2-thiazol-5-yl-ethanone]	0.1 to 1	0.1 to 1	< 0.1
Cn1cc(CC(=O)N2CCN(c3ncnc4[nH]ccc34)CC3(CC3)C2)cn1 [Example 253, 2-(1-methylpyrazol-4-yl)-1-[5-(7H-pyrrolo[2,3-d]pyrimidin-4-yl)-5,8-diazaspiro[2.6]nonan-8-yl]ethanone]	0.1 to 1	> 1	0.1 to 1
Cc1nc(CC(=O)N2CCN(c3ncnc4[nH]ccc34)CC3(CC3)C2)cs1 [Example 254, 2-(2-methylthiazol-4-yl)-1-[5-(7H-pyrrolo[2,3-d]pyrimidin-4-yl)-5,8-diazaspiro[2.6]nonan-8-yl]ethanone]	0.1 to 1	> 1	0.1 to 1
Cc1nnc(C(=O)N2CCCN(c3ncnc4[nH]ccc34)CC23CC3)[nH]1 [Example 257, (5-methyl-4H-1,2,4-triazol-3-yl)-[5-(7H-pyrrolo[2,3-d]pyrimidin-4-yl)-5,9-diazaspiro[2.6]nonan-9-yl]methanone]	0.1 to 1	> 1	0.1 to 1
O=C(Cc1ccccc1)N1CCN(c2ncnc3[nH]ccc23)CC2(CC2)C1 [Example 259, 2-phenyl-1-[5-(7H-pyrrolo[2,3-d]pyrimidin-4-yl)-5,8-diazaspiro[2.6]nonan-8-yl]ethanone]	0.1 to 1	0.1 to 1	< 0.1
O=C(N1CCN(c2ncnc3[nH]ccc23)CC2(CC2)C1)C1(c2ccccc2)CC1 [Example 260, (1-phenylcyclopropyl)-[5-(7H-pyrrolo[2,3-d]pyrimidin-4-yl)-5,8-diazaspiro[2.6]nonan-8-yl]methanone]	> 1	> 1	0.1 to 1
COc1ccc(CC(=O)N2CCN(c3ncnc4[nH]ccc34)CC3(CC3)C2)cc1 [Example 261, 2-(4-methoxyphenyl)-1-[5-(7H-pyrrolo[2,3-d]pyrimidin-4-yl)-5,8-diazaspiro[2.6]nonan-8-yl]ethanone]	0.1 to 1	0.1 to 1	< 0.1
Cc1cccc(CC(=O)N2CCN(c3ncnc4[nH]ccc34)CC3(CC3)C2)c1 [Example 262, 2-(m-tolyl)-1-[5-(7H-pyrrolo[2,3-d]pyrimidin-4-yl)-5,8-diazaspiro[2.6]nonan-8-yl]ethanone]	0.1 to 1	> 1	< 0.1
O=C(Cc1ccc2ccccc2c1)N1CCN(c2ncnc3[nH]ccc23)CC2(CC2)C1 [Example 265, 2-(2-naphthyl)-1-[5-(7H-pyrrolo[2,3-d]pyrimidin-4-yl)-5,8-diazaspiro[2.6]nonan-8-yl]ethanone]	0.1 to 1	0.1 to 1	< 0.1
N#CCc1ccc(CC(=O)N2CCN(c3ncnc4[nH]ccc34)CC3(CC3)C2)cc1 [Example 266, 2-[4-[2-oxo-2-[5-(7H-pyrrolo[2,3-d]pyrimidin-4-yl)-5,8-diazaspiro[2.6]nonan-8-yl]ethyl]phenyl]acetonitrile]	< 0.1	0.1 to 1	< 0.1
CC(C)(C)c1ccc(CC(=O)N2CCN(c3ncnc4[nH]ccc34)CC3(CC3)C2)cc1 [Example 267, 2-(4-tert-butylphenyl)-1-[5-(7H-pyrrolo[2,3-d]pyrimidin-4-yl)-5,8-diazaspiro[2.6]nonan-8-yl]ethanone]	0.1 to 1	0.1 to 1	0.1 to 1
CN(C)c1ccc(CC(=O)N2CCN(c3ncnc4[nH]ccc34)CC3(CC3)C2)cc1 [Example 268, 2-(4-dimethylaminophenyl)-1-[5-(7H-pyrrolo[2,3-d]pyrimidin-4-yl)-5,8-diazaspiro[2.6]nonan-8-yl]ethanone]	0.1 to 1	0.1 to 1	< 0.1
CC(C)(C(=O)N1CCN(c2ncnc3[nH]ccc23)CC2(CC2)C1)c1ccc(Cl)cc1 [Example 269, 2-(4-chlorophenyl)-2-methyl-1-[5-(7H-pyrrolo[2,3-d]pyrimidin-4-yl)-5,8-diazaspiro[2.6]nonan-8-yl]propan-1-one]	0.1 to 1	0.1 to 1	0.1 to 1
O=C(Cc1ccc(Cl)cc1Cl)N1CCN(c2ncnc3[nH]ccc23)CC2(CC2)C1 [Example 270, 2-(2,4-dichlorophenyl)-1-[5-(7H-pyrrolo[2,3-d]pyrimidin-4-yl)-5,8-diazaspiro[2.6]nonan-8-yl]ethanone]	0.1 to 1	0.1 to 1	< 0.1
N#Cc1ccccc1CC(=O)N1CCN(c2ncnc3[nH]ccc23)CC2(CC2)C1 [Example 272, 2-[2-oxo-2-[5-(7H-pyrrolo[2,3-d]pyrimidin-4-yl)-5,8-diazaspiro[2.6]nonan-8-yl]ethyl]benzonitrile]	0.1 to 1	0.1 to 1	< 0.1
